From EP4592286A1, “MACROCYCLIC NITROGEN-CONTAINING CROWN ETHER COMPOUND AND USE THEREOF AS PROTEIN KINASE INHIBITOR” (Artivila Biopharma, priority 2022, dated 2024)

How the values were obtained:
TYK2 = TYK2 (Homo sapiens, UniProt P29597); test: experiment of inhibiting kinase activity, TYK2; format: biochemical; conditions: at 10 nM; read-out: inhibition rate TYK2
Description: (§1) The inhibition rates of tested compounds on JAK1, JAK2, JAK3, TYK2, CDK7, CDK9, EGFR (T790M) and LRRK2 kinases were measured. The test concentrations of the compounds were 10 nM and 100 nM, and the detection was performed by replicate wells. Alternatively, compounds were 3-fold serial diluted from 10 µM for 10 concentrations in replicate wells.

wild-type LRRK2 = target: T1, wild-type LRRK2 (Homo sapiens, UniProt Q5S007); test: detection of phosphorylated S935 in HEK293T overexpressing wild-type LRRK2; format: cell-based; conditions: pS935, HEK293T overexpressing wild-type LRRK2, 1.5 hours
T1 construct: pCMV-flag-WT LRRK2 (full-length); expressed in transfected cells; host or cells: HEK293T
Description: (§2) Detection of phosphorylated S935 in HEK293T Overexpressing full-length LRRK2 (G2019S) or wild-type LRRK2
(§3) HEK293T cells was inoculated into a 6-well plate and cultured overnight. The next day, they were transiently transfected with plasmid pcDNA5-FRT/TO-FLAG LRRK2 (G2019S, full-length) or pCMV-flag-WT LRRK2 (full-length) by using Superfect transfection reagent and cultured at 37°C and 5% CO2 for 20-24 hours. The next day, cells were collected, resuspended at a density of 0.48×10^6 cells/ml, and inoculated into a 384-well plate at 50 microliters/well. Compound or DMSO solutions (volume ratio of 0.5%) were added by Tecan, and cultured at 37°C and 5% CO2 for 1.5 hours. After 1.5 hours, the supernatant was discarded, 50 microliters of 8% PFA were added in each well to fix the cells, and the cells were incubated at room temperature for 1 hour. The plate was washed with EL406 plate washer for three times, with 115 microliters of PBST per well, and the culture plate was patted to dryness. The cells were blocked with 50 microliters/well of Licor Odyssey blocking solution (0.1% Tween 20) at room temperature for 1.5 hours. The blocking solution was discarded and the culture plate was patted to dryness. 20 microliters of primary antibody (1:1000(pS935), diluted with Licor Odyssey buffer (0.1% Tween20)) was added into each well, and incubated at 4 °C overnight. The next day, the first antibody was discarded and washing was performed with PBST for five times. 20 microliters of secondary antibody (diluted with Licor Odyssey buffer (0.1% Tween20) at 1:500 and stained with DNA at 1:2000) were added into each well, and incubated at room temperature for 1 hour. The second antibody was discarded, and washing was performed for three times with PBST. The fluorescence intensity was measured by LICOR Odyssey imager Scanner, and the data was analyzed.

JAK2 = JAK2 (Homo sapiens, UniProt O60674); test: experiment of inhibiting kinase activity (Caliper mobility shift assay), JAK2; format: biochemical; conditions: at 10 nM; read-out: inhibition rate JAK2
Method in brief: (§4)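 IC50 values come from variable-slope fits of % conversion inhibition versus log compound concentration. Kinase and inhibitor were preincubated for 10 min at room temperature, and the reaction was then initiated with ATP and substrate and read by mobility shift.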

LRRK2 (G2019S) = target: T2, LRRK2 (G2019S) (Homo sapiens, UniProt Q5S007, G2019S); test: detection of phosphorylated S935 in HEK293T overexpressing full-length LRRK2 (G2019S); format: cell-based; conditions: pS935, HEK293T overexpressing LRRK2 (G2019S), 1.5 hours
T2 construct: pcDNA5-FRT/TO-FLAG LRRK2 (G2019S, full-length); expressed in transfected cells; host or cells: HEK293T
Description: as §2, §3

LRRK2 = LRRK2 (Homo sapiens, UniProt Q5S007); test: experiment of inhibiting kinase activity, LRRK2; format: biochemical; conditions: for inhibition at 0.01 µM: at 10 nM, read-out: inhibition rate LRRK2; for IC50: kinase activity assay, Table 3
Description: as §1

JAK3 [1] = target: T3, JAK3 (Homo sapiens, UniProt P52333); test: experiment of inhibiting kinase activity (Caliper mobility shift assay), JAK3; format: biochemical; conditions: at 10 nM; read-out: inhibition rate JAK3
T3 sequence (P52333 1-1124): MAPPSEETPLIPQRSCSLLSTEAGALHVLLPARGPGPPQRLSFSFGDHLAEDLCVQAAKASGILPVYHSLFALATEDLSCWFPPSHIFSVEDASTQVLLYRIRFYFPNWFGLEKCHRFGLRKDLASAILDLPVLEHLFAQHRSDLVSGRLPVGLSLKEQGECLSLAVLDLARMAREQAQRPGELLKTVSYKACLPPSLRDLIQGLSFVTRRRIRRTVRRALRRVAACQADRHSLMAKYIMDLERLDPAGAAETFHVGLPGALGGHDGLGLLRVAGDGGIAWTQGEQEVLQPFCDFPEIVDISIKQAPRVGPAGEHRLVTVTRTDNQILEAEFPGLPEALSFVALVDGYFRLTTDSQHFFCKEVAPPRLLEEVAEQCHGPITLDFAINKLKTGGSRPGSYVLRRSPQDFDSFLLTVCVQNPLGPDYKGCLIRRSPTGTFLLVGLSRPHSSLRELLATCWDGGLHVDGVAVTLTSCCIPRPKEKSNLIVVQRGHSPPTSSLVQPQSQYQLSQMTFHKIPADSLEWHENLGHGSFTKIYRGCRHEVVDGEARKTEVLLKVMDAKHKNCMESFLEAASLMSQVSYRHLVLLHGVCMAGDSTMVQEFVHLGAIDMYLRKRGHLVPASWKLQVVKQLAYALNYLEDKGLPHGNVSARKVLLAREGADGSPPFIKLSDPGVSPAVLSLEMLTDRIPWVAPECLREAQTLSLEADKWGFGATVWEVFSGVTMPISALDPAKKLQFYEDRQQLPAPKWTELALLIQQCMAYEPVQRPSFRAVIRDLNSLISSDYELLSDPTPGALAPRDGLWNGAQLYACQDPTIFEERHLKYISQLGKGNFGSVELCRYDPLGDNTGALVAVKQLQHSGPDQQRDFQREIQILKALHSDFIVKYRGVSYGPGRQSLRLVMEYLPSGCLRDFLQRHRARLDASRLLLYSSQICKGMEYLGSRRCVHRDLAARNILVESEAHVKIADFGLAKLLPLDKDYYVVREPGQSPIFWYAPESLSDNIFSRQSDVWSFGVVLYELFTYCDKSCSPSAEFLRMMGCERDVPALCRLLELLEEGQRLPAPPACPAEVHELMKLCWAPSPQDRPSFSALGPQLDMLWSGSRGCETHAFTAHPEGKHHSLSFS
Method in brief: as §4

JAK3 [2] = target: T4, JAK3 (Mus musculus, UniProt Q62137); test: JAKs cell activity test: JAK3_pSTAT5 in IL-2-induced CTLL-2 cells; format: cell-based; conditions: pSTAT5, IL-2-induced CTLL-2 cells
T4 construct: endogenous in cells; host or cells: CTLL-2
T4 sequence (Q62137 1-1100): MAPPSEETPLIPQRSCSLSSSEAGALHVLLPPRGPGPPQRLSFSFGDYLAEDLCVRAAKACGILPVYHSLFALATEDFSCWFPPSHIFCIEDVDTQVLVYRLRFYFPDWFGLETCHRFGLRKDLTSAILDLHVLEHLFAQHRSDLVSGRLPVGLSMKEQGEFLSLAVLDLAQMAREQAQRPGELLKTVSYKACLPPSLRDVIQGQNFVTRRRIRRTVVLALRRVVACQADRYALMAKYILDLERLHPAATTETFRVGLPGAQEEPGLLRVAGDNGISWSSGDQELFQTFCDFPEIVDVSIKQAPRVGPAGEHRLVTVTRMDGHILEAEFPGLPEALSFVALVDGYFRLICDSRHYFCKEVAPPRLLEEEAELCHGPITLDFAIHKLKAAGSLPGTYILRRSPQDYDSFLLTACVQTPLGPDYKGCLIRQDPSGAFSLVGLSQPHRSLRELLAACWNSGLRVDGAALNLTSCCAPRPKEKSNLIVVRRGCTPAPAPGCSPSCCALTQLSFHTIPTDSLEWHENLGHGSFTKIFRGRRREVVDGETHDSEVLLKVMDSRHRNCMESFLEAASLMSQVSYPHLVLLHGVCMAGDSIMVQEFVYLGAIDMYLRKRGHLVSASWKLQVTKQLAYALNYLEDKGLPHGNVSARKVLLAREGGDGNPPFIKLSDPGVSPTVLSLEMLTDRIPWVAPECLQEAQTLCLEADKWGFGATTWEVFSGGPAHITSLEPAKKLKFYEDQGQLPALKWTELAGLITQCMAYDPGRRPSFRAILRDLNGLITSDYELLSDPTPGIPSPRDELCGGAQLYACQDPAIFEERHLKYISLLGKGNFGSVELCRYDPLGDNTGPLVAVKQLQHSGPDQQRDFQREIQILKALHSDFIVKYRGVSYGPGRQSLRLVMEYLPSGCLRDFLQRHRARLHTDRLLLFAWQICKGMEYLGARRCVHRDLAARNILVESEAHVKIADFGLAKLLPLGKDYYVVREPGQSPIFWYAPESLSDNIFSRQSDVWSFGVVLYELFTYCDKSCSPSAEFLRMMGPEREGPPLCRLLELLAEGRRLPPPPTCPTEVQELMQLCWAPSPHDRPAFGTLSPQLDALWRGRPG
Description: THP1 cells were collected by centrifugation, resuspended with 1×HBSS, counted and diluted to a certain cell density. They were inoculated in a 384-well plate and cultured in a saturated humidity incubator with 37 °C and 5% CO2. The compound (DMSO final volume of 0.3%) was added to THP1 cells (10 doses in duplicates) and cultured in a saturated humidity incubator with 37 °C and 5% CO2. hIL-4 was added to stimulate cells and cultured in a saturated humidity incubator with 37 °C and 5% CO2. The lysis solution was added and incubated at room temperature. According to the instructions of AlphaLISA SureFire Ultra p-STAT6 detection kit, the lysis solution was transferred to pSTAT6 detection system, and the ALPHA signal was read by PE Envision microplate reader. The inhibition rate Inh%=((DMSO-sample)/(DMSO-background))×100 was calculated. IC50 was obtained by fitting with GraphPad Prism non-linear regression equation, and y=Bottom+(Top-Bottom)/(1+10^((LogIC50-x)×hillslope)), where x was the concentration of the compound and y was the inhibition rate.
JAK2_pSTAT5 was tesed in IL-3-induced BAF3 cells according to the above steps, and JAK3_pSTAT5 was tested in IL-2-induced CTLL-2 cells (without serum stimulation) according to the above steps.

LRRK2, sequence (Q5S007 whole entry): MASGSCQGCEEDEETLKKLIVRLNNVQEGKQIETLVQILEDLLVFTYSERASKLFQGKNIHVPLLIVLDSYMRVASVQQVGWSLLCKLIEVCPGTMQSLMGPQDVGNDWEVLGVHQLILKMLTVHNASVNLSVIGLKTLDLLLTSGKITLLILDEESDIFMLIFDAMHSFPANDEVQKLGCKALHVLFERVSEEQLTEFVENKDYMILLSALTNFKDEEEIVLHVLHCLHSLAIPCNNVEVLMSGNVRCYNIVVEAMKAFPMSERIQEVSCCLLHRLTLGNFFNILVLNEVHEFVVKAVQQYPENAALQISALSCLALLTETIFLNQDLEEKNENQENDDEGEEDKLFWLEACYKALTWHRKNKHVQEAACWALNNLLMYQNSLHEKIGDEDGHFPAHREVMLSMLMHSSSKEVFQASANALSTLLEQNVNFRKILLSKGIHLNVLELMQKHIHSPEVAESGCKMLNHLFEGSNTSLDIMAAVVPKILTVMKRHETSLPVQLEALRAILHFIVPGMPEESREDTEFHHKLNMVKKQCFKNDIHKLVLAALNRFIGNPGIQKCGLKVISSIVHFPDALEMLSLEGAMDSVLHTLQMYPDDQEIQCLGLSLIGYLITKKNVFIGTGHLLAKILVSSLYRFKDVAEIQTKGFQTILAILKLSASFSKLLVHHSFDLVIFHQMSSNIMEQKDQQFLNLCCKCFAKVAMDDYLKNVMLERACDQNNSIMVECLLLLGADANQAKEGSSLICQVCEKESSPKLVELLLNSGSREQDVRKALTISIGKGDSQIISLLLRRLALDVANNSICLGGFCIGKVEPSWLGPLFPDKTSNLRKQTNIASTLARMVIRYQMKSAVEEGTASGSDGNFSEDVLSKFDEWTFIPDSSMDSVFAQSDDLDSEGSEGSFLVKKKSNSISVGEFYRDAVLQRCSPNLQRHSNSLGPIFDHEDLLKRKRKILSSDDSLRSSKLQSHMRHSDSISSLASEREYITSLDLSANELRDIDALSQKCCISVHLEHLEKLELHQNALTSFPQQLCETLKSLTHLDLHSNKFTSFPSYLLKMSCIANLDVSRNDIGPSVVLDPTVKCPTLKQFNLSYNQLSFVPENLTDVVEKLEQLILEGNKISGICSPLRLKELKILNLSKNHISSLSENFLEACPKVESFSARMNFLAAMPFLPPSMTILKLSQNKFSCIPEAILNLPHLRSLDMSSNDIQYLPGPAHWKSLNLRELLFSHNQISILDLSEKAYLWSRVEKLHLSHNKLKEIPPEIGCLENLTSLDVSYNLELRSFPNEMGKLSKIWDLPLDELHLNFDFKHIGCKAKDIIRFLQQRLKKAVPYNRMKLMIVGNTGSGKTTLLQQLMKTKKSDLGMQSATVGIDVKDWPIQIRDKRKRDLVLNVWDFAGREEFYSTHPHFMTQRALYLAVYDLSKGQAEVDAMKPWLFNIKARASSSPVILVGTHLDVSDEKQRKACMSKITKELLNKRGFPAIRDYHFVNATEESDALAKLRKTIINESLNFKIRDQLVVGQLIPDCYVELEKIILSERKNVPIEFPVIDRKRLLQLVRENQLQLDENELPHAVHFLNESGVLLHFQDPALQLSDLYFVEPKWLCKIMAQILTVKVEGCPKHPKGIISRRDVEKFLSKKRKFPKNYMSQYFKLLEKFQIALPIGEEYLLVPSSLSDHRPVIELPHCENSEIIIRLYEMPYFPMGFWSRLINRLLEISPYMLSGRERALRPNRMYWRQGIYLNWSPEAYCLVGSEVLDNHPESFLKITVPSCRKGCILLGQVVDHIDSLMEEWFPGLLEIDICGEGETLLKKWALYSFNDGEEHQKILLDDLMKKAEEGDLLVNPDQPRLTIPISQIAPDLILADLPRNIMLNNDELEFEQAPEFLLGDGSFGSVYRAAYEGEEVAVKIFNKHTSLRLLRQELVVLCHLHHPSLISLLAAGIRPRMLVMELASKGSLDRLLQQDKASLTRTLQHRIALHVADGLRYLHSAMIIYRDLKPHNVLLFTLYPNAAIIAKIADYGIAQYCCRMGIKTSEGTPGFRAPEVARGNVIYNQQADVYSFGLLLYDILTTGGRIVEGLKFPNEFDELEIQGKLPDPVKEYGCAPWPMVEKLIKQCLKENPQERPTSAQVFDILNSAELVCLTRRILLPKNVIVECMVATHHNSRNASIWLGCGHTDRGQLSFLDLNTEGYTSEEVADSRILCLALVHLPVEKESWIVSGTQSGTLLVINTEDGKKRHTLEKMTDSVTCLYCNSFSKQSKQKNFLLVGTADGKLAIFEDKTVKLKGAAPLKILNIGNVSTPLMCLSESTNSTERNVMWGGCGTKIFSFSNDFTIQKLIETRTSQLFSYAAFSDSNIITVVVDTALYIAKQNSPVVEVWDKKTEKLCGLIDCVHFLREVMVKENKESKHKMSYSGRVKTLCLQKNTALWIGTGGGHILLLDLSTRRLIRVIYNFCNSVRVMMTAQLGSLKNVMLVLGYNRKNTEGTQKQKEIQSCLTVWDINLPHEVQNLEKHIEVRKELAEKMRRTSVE
T1 sequence (Q5S007 whole entry): as above
JAK2, sequence (O60674 whole entry): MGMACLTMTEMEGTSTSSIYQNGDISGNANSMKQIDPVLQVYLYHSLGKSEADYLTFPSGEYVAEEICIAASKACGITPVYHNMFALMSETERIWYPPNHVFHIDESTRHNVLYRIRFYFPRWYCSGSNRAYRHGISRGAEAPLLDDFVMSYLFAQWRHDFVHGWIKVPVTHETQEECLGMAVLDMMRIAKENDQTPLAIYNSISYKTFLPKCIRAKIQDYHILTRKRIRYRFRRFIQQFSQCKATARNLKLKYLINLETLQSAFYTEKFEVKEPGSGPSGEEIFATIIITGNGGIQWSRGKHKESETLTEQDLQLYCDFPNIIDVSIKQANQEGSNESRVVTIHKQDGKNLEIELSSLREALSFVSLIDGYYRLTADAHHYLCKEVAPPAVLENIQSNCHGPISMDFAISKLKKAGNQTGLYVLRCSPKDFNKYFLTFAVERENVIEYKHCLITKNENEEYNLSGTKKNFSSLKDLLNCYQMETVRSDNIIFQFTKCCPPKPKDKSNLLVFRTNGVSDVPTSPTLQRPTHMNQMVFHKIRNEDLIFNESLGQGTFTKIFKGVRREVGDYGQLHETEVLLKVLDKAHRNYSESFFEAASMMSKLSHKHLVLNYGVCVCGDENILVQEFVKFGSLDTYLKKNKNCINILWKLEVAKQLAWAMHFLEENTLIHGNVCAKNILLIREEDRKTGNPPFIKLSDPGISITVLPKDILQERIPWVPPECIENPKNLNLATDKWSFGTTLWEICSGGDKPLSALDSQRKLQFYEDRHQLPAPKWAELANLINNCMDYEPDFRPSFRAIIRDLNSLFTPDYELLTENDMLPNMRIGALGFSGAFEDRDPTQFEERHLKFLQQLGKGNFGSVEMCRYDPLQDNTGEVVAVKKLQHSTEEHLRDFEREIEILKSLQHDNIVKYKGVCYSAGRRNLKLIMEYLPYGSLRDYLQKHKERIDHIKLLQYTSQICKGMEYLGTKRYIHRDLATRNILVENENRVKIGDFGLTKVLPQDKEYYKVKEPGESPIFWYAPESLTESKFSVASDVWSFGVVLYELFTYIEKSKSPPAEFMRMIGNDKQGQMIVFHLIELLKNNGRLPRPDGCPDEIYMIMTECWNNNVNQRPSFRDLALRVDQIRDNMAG
T2 sequence (Q5S007 whole entry G2019S): as the sequence (Q5S007 whole entry) above, with G2019S counted along it
TYK2, sequence (P29597 whole entry): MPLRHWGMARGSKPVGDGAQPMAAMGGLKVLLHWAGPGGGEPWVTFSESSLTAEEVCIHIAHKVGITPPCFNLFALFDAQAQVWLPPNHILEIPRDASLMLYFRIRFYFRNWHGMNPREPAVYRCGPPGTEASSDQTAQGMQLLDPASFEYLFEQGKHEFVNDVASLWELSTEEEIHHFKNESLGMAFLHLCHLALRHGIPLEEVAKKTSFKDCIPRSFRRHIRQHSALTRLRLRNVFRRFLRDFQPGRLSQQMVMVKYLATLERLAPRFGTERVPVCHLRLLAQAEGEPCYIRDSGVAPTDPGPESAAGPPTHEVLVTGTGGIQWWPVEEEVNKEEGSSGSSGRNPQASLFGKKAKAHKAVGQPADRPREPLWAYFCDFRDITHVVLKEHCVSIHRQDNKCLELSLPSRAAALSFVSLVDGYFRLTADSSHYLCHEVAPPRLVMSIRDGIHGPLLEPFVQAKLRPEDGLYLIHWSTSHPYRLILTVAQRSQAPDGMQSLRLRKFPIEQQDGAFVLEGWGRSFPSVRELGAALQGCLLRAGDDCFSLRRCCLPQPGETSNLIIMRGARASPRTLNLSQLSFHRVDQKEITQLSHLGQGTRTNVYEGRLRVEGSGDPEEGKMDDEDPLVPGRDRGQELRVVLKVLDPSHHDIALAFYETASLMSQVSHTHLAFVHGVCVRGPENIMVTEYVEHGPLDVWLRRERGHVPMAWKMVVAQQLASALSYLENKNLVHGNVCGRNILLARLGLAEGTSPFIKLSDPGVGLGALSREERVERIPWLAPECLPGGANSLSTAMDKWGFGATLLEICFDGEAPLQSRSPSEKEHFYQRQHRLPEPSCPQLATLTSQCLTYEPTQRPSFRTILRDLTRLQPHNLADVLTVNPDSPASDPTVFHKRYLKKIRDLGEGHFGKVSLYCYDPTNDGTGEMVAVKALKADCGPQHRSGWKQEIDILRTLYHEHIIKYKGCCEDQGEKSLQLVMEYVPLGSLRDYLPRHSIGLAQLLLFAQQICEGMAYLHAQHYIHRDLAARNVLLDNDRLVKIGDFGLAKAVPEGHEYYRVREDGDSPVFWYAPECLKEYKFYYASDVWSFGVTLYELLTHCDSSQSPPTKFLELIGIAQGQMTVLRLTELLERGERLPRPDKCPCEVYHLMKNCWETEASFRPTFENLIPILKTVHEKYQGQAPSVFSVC

Compound	inhibition at 0.01 µM (TYK2) [%]	EC50 (wild-type LRRK2) [nM]	inhibition at 0.01 µM (JAK2) [%]	EC50 (LRRK2 (G2019S)) [nM]	inhibition at 0.01 µM (LRRK2) [%]	IC50 (LRRK2) [nM]	inhibition at 0.01 µM (JAK3 [1]) [%]	EC50 (JAK3 [2]) [nM]
CC(C)S(=O)(=O)c1ccccc1Nc1nc(Nc2ccc3c(c2)OCCN(C)CCO3)ncc1C(F)(F)F [Example 82, N^4-(2-(isopropylsulfonyl)phenyl)-N^2-(4-methyl-3,4,5,6-tetrahydro-2H-benzo[b][1,4, 7]dioxazolin-9-yl)-5-(trifluoromethyl)pyrimidin-2,4-diamine]	40 to 79	< 500	40 to 79	< 500	> 80	< 50	–	–
C=CC(=O)Nc1cccc(Nc2nc(Nc3ccc4c(c3)OCCN(C)CCO4)ncc2Cl)c1 [Example 55, N-(3-((5-chloro-2-((4-methyl-3,4,5,6-tetrahydro-2H-benzo[b][1,4,7]dioxazolin-9-yl)amino)pyrimidin-4-yl)amino)phenyl)acrylamide]	–	–	25 to 39	–	–	–	> 80	50 to 500
CN1CCOc2ccc(Nc3nc(NCCS(C)(=O)=O)c4cc[nH]c4n3)cc2OCC1 [Example 84, N^2-(4-methyl-3,4,5,6-tetrahydro-2H-benzo[b][1,4,7]dioxazolin-9-yl)-N^4-(2-(methylsulfonyl)ethyl)-7H-pyrrolo[2,3-d]pyrimidin-2,4-diamine]	–	1000 to 5000	–	–	40 to 79	< 50	–	–
